Data reported in US20160030416A1, “METHODS OF TREATING B2-BRADYKININ RECEPTOR MEDIATED ANGIOEDEMA” (SHIRE HUMAN GENETIC THERAPIES, INC., priority 2013, published 2016).
≈ marks a conversion by molar mass, not a printed value.

Tests used:
[1] = Physicochemical properties of CFMQ
Method: (§1) The physicochemical properties of 1-((4-Chloro-3-(((4-(4-fluoro-1H-pyrazol-1-yl)-2-methylquinolin-8-yl)oxy)methyl)-6-methylpyridin-2-yl)methyl)-2-oxo-1,2-dihydropyridine-3-carbonitrile (CFMQ) were determined using standard methods. CFMQ was a free base with a molecular weight of 514.9 Da and was a nonhygroscopic, crystalline powder with a melting point of about 214° C.

[2] = Solubility of CFMQ in vehicles; assay type: physicochemical
Method: as §1

plasma extravasation [3] = experiment: Plasma extravasation (Evans blue in bladder), oral gavage, wild-type male mice; assay type: in vivo, wild-type (WT) C57/BL6 male mice; conditions: for inhibition of plasma extravasation at % (compared to vehicle controls): after 64 minutes
From the text: In vivo experiments in both wild-type (WT) C57BL/6J mice and C1-inhibited knock out (C1 INH KO) mice measured pharmacodynamic efficacy by the ability of CFMQ to block plasma extravasation, which is causative to edema, the most important symptom requiring treatment in HAE subjects. This plasma extravasation model has been used extensively in the literature to investigate the efficacy of bradykinin receptor antagonists. (Han et al., “Increased vascular permeability in C1 inhibitor-deficient mice mediated by the bradykinin type 2 receptor,” J Clin Invest, 2002 April; 109(8): 1057-1063.)
The uptake and effective blocking of plasma extravasation of CFMQ (HGT3711) was examined following oral administration in wild-type (WT) C57/BL6 male mice (n=4/dose group). Mice received a single oral gavage of CFMQ (HGT3711) (10 μL/g) at 3.0 or 10 mg/kg. Blood samples were taken at 20 and 60 minutes post-dose. Following oral administration CFMQ (HGT3711) administration and prior to the terminal time point, mice received an IV injection of Evans blue (EB) dye (30 mg/kg) and were sacrificed. Similar to the IV study, EB concentration in the formamide extract was determined spectrophotometrically (μg EB per milligram of tissue) and efficacy was determined by inhibiting the accumulation of EB in the bladder.

plasma extravasation [4] = experiment: Plasma extravasation (Evans blue in bladder), oral gavage, female WT mice; assay type: in vivo
Method: The efficacy of CFMQ (HGT3711) following orally administration was studied in female WT mice. Eight mice per group received either vehicle or CFMQ (HGT3711) at 1.0, 3.0, 10, or 30 mg/kg by oral gavage. An additional dose group received Firazyr® (icatibant-0.4 mg/kg) as a subcutaneous (SC) injection. Similar to the previous studies, inhibition of EB content in the dried bladder (μg EB per milligram of tissue weight) was utilized as measurement of efficacy.

[5] = Plasma kinetics, intravenous, CD-1 mice; assay type: in vivo, female CD-1 mice
Method: CFMQ (HGT3711) was administered to fasted female CD-1 mice by a single intravenous injection at 1.0 mg/kg, formulated in 100% PEG200. Blood samples were taken via cardiac puncture prior to administration and at 0.083 (5 min), 0.25 (15 min), 0.50 (30 min), 1, 2, 4, and 8 hours post dose. Plasma concentrations of CFMQ (HGT3711) were determined by LC-MS/MS and concentrations below the limit of quantitation (BLOQ=<1 ng/ml) were assigned a value of zero for pharmacokinetic analysis. Nominal dosing concentrations were used in all calculations.

[6] = Plasma kinetics, intravenous, Sprague-Dawley rats; assay type: in vivo, female Sprague-Dawley rats
Method: CFMQ (HGT3711) was administered to fasted female Sprague-Dawley rats by a single intravenous injection at 1.0 mg/kg, formulated in 100% PEG200 (Table 2.6.5.X, Study 10SHIRUSP11). Blood samples were taken via a jugular vein cannula prior to administration and at 0.083 (5 min), 0.25 (15 min), 0.50 (30 min), 1, 2, 4 and 8 hours post dose. Plasma concentrations of CFMQ (HGT3711) were determined by LC-MS/MS and concentrations below the limit of quantitation (1 ng/mL) were assigned a value of zero for pharmacokinetic analysis. Nominal dosing concentrations were used in all calculations.

[7] = In vitro microsomal stability, mini-pig; assay type: in vitro ADME; conditions: Mini-Pig (Gotting), Male
Method: In vitro metabolic stability studies were performed to determine hepatic stability in vivo. CFMQ was incubated in liver microsomal preparations from mouse, rat, dog, mini-pig, and humans, as well as an additional study with monkey and human. CFMQ was incubated with human and animal liver microsomes at 0.3 mg/mL at 37° C. for 30 or 60 minutes. Additional reference compounds were incubated as controls. Following incubation, samples were analyzed by HPLC-MS/MS.

[8] = female, CD-1, mouse, plasma, IV 1 mg/kg
[9] = female, CD-1, mouse, plasma, IV 1 mg/kg, extrapolated to t = 0
[10] = female, Sprague-Dawley, rat, plasma, IV 1 mg/kg

Cc1cc(Cl)c(COc2cccc3c(-n4cc(F)cn4)cc(C)nc23)c(Cn2cccc(C#N)c2=O)n1 [CFMQ, 1-((4-Chloro-3-(((4-(4-fluoro-1H-pyrazol-1-yl)-2-methylquinolin-8-yl)oxy)methyl)-6-methylpyridin-2-yl)methyl)-2-oxo-1,2-dihydropyridine-3-carbonitrile]
pKa1 [1]: 3.95
pKa2 [1]: 1.70
solubility in acidic environments ([1]; acidic environments): greatly enhanced
solubility in aqueous medium ([1]; aqueous medium): slight solubility
logD ([1]; pH = 7.4): 3.47
solubility ([1]; phosphate buffered saline (PBS), aqueous buffer): 33 µM (≈ 17 µg/mL)
solubility ([2]; 0.1 N HCl, simulated gastric fluid, HCl 0.1N, pH 1.3): 320 µg/mL (≈ 621 µM)
solubility ([2]; Labrasol (glyceryl and polyethylene glycol esters), aqueous with cosolvent or surfactant or cyclodextrin): 1430 µg/mL (≈ 2780 µM)
solubility ([2]; NaOH 0.1N, pH 12.8, aqueous buffer): < 10 µg/mL
solubility ([2]; PEG400 (polyethylene glycol 400), organic solvent or mixture): 2370 µg/mL (≈ 4600 µM)
solubility ([2]; Tween 20 (polyoxyethylene (20) sorbitan monolaurate), aqueous with cosolvent or surfactant or cyclodextrin): 870 µg/mL (≈ 1690 µM)
solubility ([2]; Tween 80 (polyoxyethylene (80) sorbitan monolaurate), aqueous with cosolvent or surfactant or cyclodextrin): 3500 µg/mL (≈ 6800 µM)
solubility ([2]; citrate/NaOH buffer, aqueous buffer, Citrate/NaOH pH 2): 20 µg/mL (≈ 38.8 µM)
solubility ([2]; citrate/NaOH buffer, aqueous buffer, Citrate/NaOH pH 5): < 10 µg/mL
solubility ([2]; ethanol, organic solvent or mixture): 170 µg/mL (≈ 330 µM)
solubility ([2]; glycerol, organic solvent or mixture): 10 µg/mL (≈ 19.4 µM)
solubility ([2]; olive oil, oil or lipid): < 10 µg/mL
solubility ([2]; organic solvent or mixture, Acetic acid, glacial): 19900 µg/mL (≈ 38600 µM)
solubility ([2]; phosphate buffer, pH 7, aqueous buffer): < 10 µg/mL
solubility ([2]; propylene glycol, organic solvent or mixture): 100 µg/mL (≈ 194 µM)
solubility ([2]; water): < 10 µg/mL
inhibition of plasma extravasation to % (compared to vehicle controls) (plasma extravasation [3]; oral 3.0 mg/kg, 4 minutes post dose): 56%
inhibition of plasma extravasation to % (compared to vehicle controls) (plasma extravasation [3]; oral 3.0 mg/kg, 24 minutes post dose): 58%
inhibition of plasma extravasation at % (compared to vehicle controls) (plasma extravasation [3]; oral 3.0 mg/kg): 72%
inhibition of plasma extravasation to % (compared to vehicle controls) (plasma extravasation [3]; oral 10 mg/kg, 4 minutes post dose): 14%
inhibition of plasma extravasation to % (compared to vehicle controls) (plasma extravasation [3]; oral 10 mg/kg, 24 minutes post dose): 21%
inhibition of plasma extravasation at % (compared to vehicle controls) (plasma extravasation [3]; oral 10 mg/kg): 75%
plasma value (plasma extravasation [4]; oral 10.0 mg/kg): 267 nM
inhibition of EB accumulation in the bladder (plasma extravasation [4]; oral 10 mg/kg, female WT mice): ~100%
efficacy compared with 0.4 mg/kg SC Firazyr (plasma extravasation [4]; oral 10.0 mg/kg, female WT mice): equally effective
inhibition of EB accumulation in the bladder (plasma extravasation [4]; oral 30 mg/kg, female WT mice): ~100%
minimally-effective dose (MED) (plasma extravasation [4]; oral gavage, female WT mice): 3.0 mg/kg
plasma concentration ([5]; IV 1 mg/kg, by 4 hours post-dose, BLOQ=<1 ng/ml): below the BLOQ
adverse reactions ([5]; IV 1.0 mg/kg, mice): No adverse reactions were observed
AUC(0-inf) [5, 8]: 70.9 ng·h/mL
clearance [5, 8]: 235 mL/min/kg
half-life [5, 8]: 0.56 h
concentration at 0.083 hr ([5]; female, CD-1, mouse, plasma, IV 1 mg/kg, 0.083 hr, read-out: Average Concentration of HGT3711): 162 ng/mL
concentration at 0.25 hr ([5]; female, CD-1, mouse, plasma, IV 1 mg/kg, 0.25 hr, read-out: Average Concentration of HGT3711): 92.9 ng/mL
concentration at 0.5 hr ([5]; female, CD-1, mouse, plasma, IV 1 mg/kg, 0.50 hr, read-out: Average Concentration of HGT3711): 22.4 ng/mL
concentration at 1 hr ([5]; female, CD-1, mouse, plasma, IV 1 mg/kg, 1.0 hr, read-out: Average Concentration of HGT3711): 12.6 ng/mL
concentration at 2 hr ([5]; female, CD-1, mouse, plasma, IV 1 mg/kg, 2.0 hr, read-out: Average Concentration of HGT3711): 3.48 ng/mL
C0 [5, 9]: 214 ng/mL
Tmax [5, 9]: 0 h
AUC(0-t) ([5]; female, CD-1, mouse, plasma, IV 1 mg/kg, read-out: AUClast ± SE): 68.1 ng·h/mL
Vd ([5]; female, CD-1, mouse, plasma, IV 1 mg/kg, read-out: Vss): 6.3 L/kg
clearance as % of liver blood flow in rat (3.3 L/hr/kg) ([6]; IV 1 mg/kg): approximately 30%
adverse reactions ([6]; IV 1.0 mg/kg, rats): no adverse reactions observed
AUC(0-inf) [6, 10]: 1410 ng·h/mL
AUC(0-t) [6, 10]: 1150 ng·h/mL
C0 [6, 10]: 747 ng/mL
Tmax [6, 10]: 0 h
clearance [6, 10]: 15.8 mL/min/kg
half-life [6, 10]: 2.86 ± 2.54 h
concentration at 0 hr ([6]; female, Sprague-Dawley, rat, plasma, IV 1 mg/kg, 0 hr, read-out: Average Concentration of HGT3711): 0 ng/mL
concentration at 0.083 hr ([6]; female, Sprague-Dawley, rat, plasma, IV 1 mg/kg, 0.083 hr, read-out: Average Concentration of HGT3711): 597 ng/mL
concentration at 0.25 hr ([6]; female, Sprague-Dawley, rat, plasma, IV 1 mg/kg, 0.25 hr, read-out: Average Concentration of HGT3711): 401 ng/mL
concentration at 0.5 hr ([6]; female, Sprague-Dawley, rat, plasma, IV 1 mg/kg, 0.50 hr, read-out: Average Concentration of HGT3711): 324 ng/mL
concentration at 1 hr ([6]; female, Sprague-Dawley, rat, plasma, IV 1 mg/kg, 1.0 hr, read-out: Average Concentration of HGT3711): 248 ng/mL
concentration at 2 hr ([6]; female, Sprague-Dawley, rat, plasma, IV 1 mg/kg, 2.0 hr, read-out: Average Concentration of HGT3711): 160 ng/mL
concentration at 4 hr ([6]; female, Sprague-Dawley, rat, plasma, IV 1 mg/kg, 4.0 hr, read-out: Average Concentration of HGT3711): 113 ng/mL
concentration at 8 hr ([6]; female, Sprague-Dawley, rat, plasma, IV 1 mg/kg, 8.0 hr, read-out: Average Concentration of HGT3711): 36.9 ng/mL
Vd ([6]; female, Sprague-Dawley, rat, plasma, IV 1 mg/kg, read-out: Vss): 2.6 ± 1.1 L/kg
% Remaining [30 minutes] ([7]; 30 minutes): 74%
% Remaining [60 minutes] ([7]; 60 minutes): 58%
